{"source": "patent US7524860B2", "about": "“Antibacterial agents” (Pfizer Inc., priority 2004, dated 2009)", "data": [{"tested_on": "Neisseria gonorrhoeae, GC525 (NG-2888)", "assay": "in-vitro antibacterial activity, microbroth dilution MIC susceptibility testing", "assay_type": "cell-based", "set-up": "unit: ug/mL", "conditions": "Neisseria gonorrhoeae, microbroth dilution in gonococcal broth, 20-24 hours at 35 C, lowest concentration preventing visible growth, read-out: MIC", "how_it_was_run": "(§1)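 Broth microdilution in gonococcal broth, inoculum ~5×10^5 cfu/mL, 20-24 h at 35 C in humidified CO2; compounds from 2 mg/mL DMSO stocks over 64-0.06 and 1-0.001 ug/mL two-fold series. MIC is the lowest concentration preventing visible growth, read visually; duplicates differing one well give the lower value, two wells the middle value.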", "units": {"MIC": "µg/mL"}, "values": [{"molecule": "CCNC(=O)Nc1nc2cc(-c3cccnc3)cc(C(=O)NCc3ccc(OC)c(OC)c3)n2n1", "note": "[Example 106, 2-(3-Ethyl-ureido)-7-pyridin-3-yl-[1,2,4]triazolo[1,5-a]pyridine-5-carboxylic acid 3,4-dimethoxy-benzylamide]", "MIC": "> 64"}, {"molecule": "CCNC(=O)Nc1nc2cc(-c3cccnc3)cc(C(=O)NCCCN)n2n1", "note": "[Example 107, 2-(3-Ethyl-ureido)-7-pyridin-3-yl-[1,2,4]triazolo[1,5-a]pyridine-5-carboxylic acid (3-amino-propyl)-amide]", "MIC": "> 64"}, {"molecule": "CCCC(=O)c1cc(-c2cccnc2)cc2nc(NC(=O)NCC)nn12", "note": "[Example 108, 1-(5-Butyryl-7-pyridin-3-yl-[1,2,4]triazolo[1,5-a]pyridine-2-yl)-3-ethyl-urea]", "MIC": 2}, {"molecule": "CCNC(=O)Nc1nc2cc(-c3cccnc3)cc(C(=O)C3CC3)n2n1", "note": "[Example 109, 1-(5-Cyclopropanecarbonyl-7-pyridin-3-yl-[1,2,4]triazolo[1,5-a]pyridine-2-yl)-3-ethyl-urea]", "MIC": 2}, {"molecule": "CCNC(=O)Nc1nc2cc(-c3cccnc3)cc(C(=O)Cc3ccccc3)n2n1", "note": "[Example 110, 1-Ethyl-3-(5-phenylacetyl-7-pyridin-3-yl-[1,2,4]triazolo[1,5-a]pyridine-2-yl)-urea]", "MIC": 4}, {"molecule": "CCNC(=O)Nc1nc2cc(-c3cccnc3)cc(C(=O)c3ccccc3)n2n1", "note": "[Example 111, 1-(5-Benzoyl-7-pyridin-3-yl-[1,2,4]triazolo[1,5-a]pyridine-2-yl)-3-ethyl-urea]", "MIC": 8}, {"molecule": "CCCC(=NOC)c1cc(-c2cccnc2)cc2nc(NC(=O)NCC)nn12", "note": "[Example 112, 1-Ethyl-3-[5-(1-methoxyimino-butyl)-7-pyridin-3-yl-[1,2,4]triazolo[1,5-a]pyridine-2-yl]-urea]", "MIC": 8}, {"molecule": "CCNC(=O)Nc1cn2c(CN3CCCC3)cc(-c3cccnc3)cc2n1", "note": "[Example 113, 1-Ethyl-3-(7-pyridin-3-yl-5-pyrrolidin-1-ylmethyl-imidazo[1,2-a]pyridin-2-yl)-urea]", "MIC": 64}, {"molecule": "CCNC(=O)Nc1nc2cc(N3CCCC3)cc(C(=O)N3CCCC3)n2n1", "note": "[Example 121, 1-Ethyl-3-[5-(pyrrolidine-1-carbonyl)-7-pyrrolidin-1-yl-[1,2,4]triazolo[1,5-a]pyridin-2-yl]-urea]", "MIC": 64}, {"molecule": "CCNC(=O)Nc1nc2cc(-c3cccnc3)cc(-c3nc(CC)cs3)n2n1", "note": "[Example 122, 1-Ethyl-3-[5-(4-ethyl-thiazol-2-yl)-7-pyridin-3-yl-[1,2,4]triazolo[1,5-a]pyridin-2-yl]-urea]", "MIC": 0.06}, {"molecule": "CCNC(=O)Nc1nc2cc(-c3cccnc3)cc(-c3cnc(CC)s3)n2n1", "note": "[Example 123, 1-Ethyl-3-[5-(2-ethyl-thiazol-5-yl)-7-pyridin-3-yl-[1,2,4]triazolo[1,5-a]pyridin-2-yl]-urea]", "MIC": "> 64"}, {"molecule": "CCNC(=O)Nc1nc2cc(-c3cccnc3)cc(-c3cncs3)n2n1", "note": "[Example 125, 1-Ethyl-3-[5-(thiazol-5-yl)-7-pyridin-3-yl-[1,2,4]triazolo[1,5-a]pyridin-2-yl]-urea]", "MIC": 0.06}, {"molecule": "CCNC(=O)Nc1nc2cc(-c3cccnc3)cc(-c3ccccn3)n2n1", "note": "[Example 127, 1-Ethyl-3-(5-pyridin-2-yl-7-pyridin-3-yl-[1,2,4]triazolo[1,5-a]pyridin-2-yl)-urea]", "MIC": 32}, {"molecule": "CCNC(=O)Nc1nc2cc(-c3cccnc3)cc(-c3ncccn3)n2n1", "note": "[Example 128, 1-Ethyl-3-(7-pyridin-3-yl-5-pyrimidin-2-yl-[1,2,4]triazolo[1,5-a]pyridin-2-yl)-urea]", "MIC": "> 64"}, {"molecule": "CCNC(=O)Nc1nc2cc(-c3cccnc3)cc(-c3cnc(C)o3)n2n1", "note": "[Example 129, N-Ethyl-N′-[5-(2-methyl-1,3-oxazol-5-yl)-7-pyridin-3-yl[1,2,4]triazolo[1,5-a]pyridin-2-yl]urea]", "MIC": 1}, {"molecule": "CCNC(=O)Nc1nc2cc(-c3cccnc3)cc(N3CCN(C)CC3)n2n1", "note": "[Example 131, 1-Ethyl-3-[5-(4-methyl-piperazin-1-yl)-7-pyridin-3-yl-[1,2,4]triazolo[1,5-a]pyridin-2-yl]-urea]", "MIC": 32}, {"molecule": "CCNC(=O)Nc1nc2cc(-c3cccnc3)cc(-c3cnc(C)s3)n2n1", "note": "[Example 132, 1-Ethyl-3-[5-(2-methyl-thiazol-5-yl)-7-pyridin-3-yl-[1,2,4]triazolo[1,5-a]pyridin-2-yl]-urea]", "MIC": 2}, {"molecule": "CCNC(=O)Nc1nc2cc(-c3cccnc3)cc(-c3cnc(C)n3C)n2n1", "note": "[Example 135, N-[5-(1,2-Dimethyl-1H-imidazol-5-yl)-7-pyridin-3-yl[1,2,4]triazolo[1,5-a]pyridin-2-yl]-N′-ethylurea]", "MIC": 8}, {"molecule": "CCNC(=O)Nc1nc2cc(-c3cccnc3)cc(-c3cncn3C)n2n1", "note": "[Example 136, N-ethyl-N′-[5-(1-methyl-1H-imidazol-5-yl]-7-pyridin-3-yl[1,2,4]triazolo[1,5-a]pyridin-2-yl]urea]", "MIC": 4}, {"molecule": "CCNC(=O)Nc1nc2cc(-c3cccnc3)cc(N(C)C3CCCCC3)n2n1", "note": "[Example 137, N-[5-[Cyclohexyl(methyl)amino]-7-pyridin-3-yl[1,2,4]triazolo[1,5-a]pyridin-2-yl]-N′-ethylurea]", "MIC": 32}, {"molecule": "CCNC(=O)Nc1nc2cc(-c3cccnc3)cc(NC3CCCCC3)n2n1", "note": "[Example 138, 1-(5-Cyclohexylamino-7-pyridin-3-yl-[1,2,4]triazolo[1,5-a]pyridin-2-yl)-3-ethyl-urea]", "MIC": 0.5}, {"molecule": "CCNC(=O)Nc1nc2cc(-c3cccnc3)cc(-c3cnc(CC)o3)n2n1", "note": "[Example 139, N-Ethyl-N′-[5-(2-ethyl-1,3-oxazol-5-yl)-7-pyridin-3-yl[1,2,4]triazolo[1,5-a]pyridin-2-yl]urea]", "MIC": 1}, {"molecule": "CCNC(=O)Nc1nc2cc(-c3cccnc3)cc(-c3cnc(C(C)C)s3)n2n1", "note": "[Example 140, 1-Ethyl-3-[5-(2-i-propyl-thiazol-5-yl)-7-pyridin-3-yl-[1,2,4]triazolo[1,5-a]pyridin-2-yl]-urea]", "MIC": 64}, {"molecule": "CCNC(=O)Nc1nc2cc(-c3cccnc3)cc(-c3ccc(OC)nc3)n2n1", "note": "[Example 142, N-Ethyl-N′-[5-(6-methoxypyridin-3-yl)-7-pyridin-3-yl[1,2,4]triazolo[1,5-a]pyridin-2-yl]urea]", "MIC": 16}, {"molecule": "CCNC(=O)Nc1nc2cc(-c3cccnc3)cc(OCCN3CCCCC3)n2n1", "note": "[Example 144, 1-Ethyl-3-[5-(2-piperidin-1-yl-ethoxy)-7-pyridin-3-yl-[1,2,4]triazolo[1,5-a]pyridin-2-yl]-urea]", "MIC": 32}]}, {"tested_on": "Neisseria gonorrhoeae, GC525 (NG-2888)", "assay": "in-vitro antibacterial activity, microbroth dilution MIC susceptibility testing", "assay_type": "cell-based", "set-up": "unit: ug/mL", "conditions": "microbroth dilution in gonococcal broth, 20-24 hours at 35 C, lowest concentration preventing visible growth", "how_it_was_run": "as §1", "units": {"MIC": "µg/mL"}, "values": [{"molecule": "CCOC(=O)c1cc(-c2cnc(N(C)C)nc2)cc2nc(NC(=O)NC(C)C)cn12", "note": "[Example 116, 7-(2-Dimethylamino-pyrimidin-5-yl)-2-(3-isopropyl-ureido)-imidazo[1,2-a]pyridine-5-carboxylic acid ethyl ester]", "MIC": ">64.0"}, {"molecule": "CCNC(=O)Nc1cn2c(C(=O)OCC)cc(-c3ccc(OC)cc3)cc2n1", "note": "[Example 118, 2-(3-Ethyl-ureido)-7-(4-methoxy-phenyl)-imidazo[1,2-a]pyridine-5-carboxylic acid ethyl ester]", "MIC": ">64.0"}, {"molecule": "CCNC(=O)Nc1nc2cc(-c3cccnc3)cc(-c3cnc(CC)s3)n2n1", "note": "[Example 124, 1-ethyl-3-[5-(2-ethyl-thiazol-5-yl)-7-pyridin-3-yl-[1,2,4]triazolo[1,5-a]pyridin-2-yl]-urea]", "MIC": 64.0}, {"molecule": "CCNC(=O)Nc1nc2cc(-c3cccnc3)cc(-c3cccnc3)n2n1", "note": "[Example 126, 1-(5,7-Di-pyridin-3-yl-[2,4]triazolo[1,5-a]pyridin-2-yl)-3-ethyl-urea]", "MIC": 16.0}]}]}
